± gives the expanded uncertainty stated by the source.
Legend:
[1] = mn = molality of the nth substance listed, in mol/kg; settings: 101 kPa, Liquid, m2 = 0; for viscosity: Capillary tube (Ostwald / Ubbelohde) method; for speed of sound: Linear variable-path acoustic interferometer; for mass density: Pycnometric method
[2] = 101.33 kPa, Liquid; for viscosity: Capillary tube (Ostwald / Ubbelohde) method; for speed of sound: Linear variable-path acoustic interferometer; for mass density: Pycnometric method

| viscosity ([2]; 303 K) | speed of sound ([2]; 303 K) | mass density ([2]; 303 K) | viscosity ([2]; 308 K) | speed of sound ([2]; 308 K) | mass density ([2]; 308 K) | viscosity ([2]; 313 K) | speed of sound ([2]; 313 K) | mass density ([2]; 313 K) | Compound | viscosity ([1]; 303 K) | speed of sound ([1]; 303 K) | mass density ([1]; 303 K) | viscosity ([1]; 308 K) | speed of sound ([1]; 308 K) | mass density ([1]; 308 K) | viscosity ([1]; 313 K) | speed of sound ([1]; 313 K) | mass density ([1]; 313 K) |
| --- | --- | --- | --- | --- | --- | --- | --- | --- | --- | --- | --- | --- | --- | --- | --- | --- | --- | --- |
|  |  |  |  |  |  |  |  |  | CN(C)C=O [dimethylformamide] + COc1ccc(C2(C)OC(CSc3nc4ccccc4c(=O)n3-c3ccccc3C)=NN2C(C)=O)cc1 | 0.7588 ± 0.15 mPa·s | 1442 ± 6 m/s | 941.7 ± 0.7 kg/m3 | 0.7056 ± 0.14 mPa·s | 1432 ± 5.9 m/s | 937.2 ± 0.7 kg/m3 | 0.6353 ± 0.13 mPa·s | 1402 ± 5.8 m/s | 933.6 ± 0.6 kg/m3 |
| 0.6628 ± 0.13 mPa·s | 960 ± 4 m/s | 1475.3 ± 20 kg/m3 | 0.6279 ± 0.13 mPa·s | 950.8 ± 4 m/s | 1470.8 ± 20 kg/m3 | 0.5781 ± 0.12 mPa·s | 932.4 ± 3.9 m/s | 1465.8 ± 20 kg/m3 | ClC(Cl)Cl [trichloromethane] |  |  |  |  |  |  |  |  |  |
|  |  |  |  |  |  |  |  |  | CN(C)C=O [dimethylformamide] + CC(=O)N1N=C(CSc2nc3ccccc3c(=O)n2-c2ccccc2C)OC1(C)c1ccc(C)cc1 | 0.7588 ± 0.15 mPa·s | 1442 ± 6 m/s | 941.7 ± 0.7 kg/m3 | 0.7056 ± 0.14 mPa·s | 1432 ± 5.9 m/s | 937.2 ± 0.7 kg/m3 | 0.6353 ± 0.13 mPa·s | 1402 ± 5.8 m/s | 933.6 ± 0.6 kg/m3 |
|  |  |  |  |  |  |  |  |  | ClC(Cl)Cl [trichloromethane] + CC(=O)N1N=C(CSc2nc3ccccc3c(=O)n2-c2ccccc2C)OC1(C)c1ccc(C)cc1 | 0.6628 ± 0.13 mPa·s | 960 ± 4 m/s | 1475.3 ± 20 kg/m3 | 0.6279 ± 0.13 mPa·s | 950.8 ± 4 m/s | 1470.8 ± 20 kg/m3 | 0.5781 ± 0.12 mPa·s | 932.4 ± 3.9 m/s | 1465.8 ± 20 kg/m3 |
| 0.7588 ± 0.15 mPa·s | 1442 ± 6 m/s | 941.7 ± 0.7 kg/m3 | 0.7056 ± 0.14 mPa·s | 1432 ± 5.9 m/s | 937.2 ± 0.7 kg/m3 | 0.6353 ± 0.13 mPa·s | 1402 ± 5.8 m/s | 933.6 ± 0.6 kg/m3 | CN(C)C=O [dimethylformamide] |  |  |  |  |  |  |  |  |  |
|  |  |  |  |  |  |  |  |  | ClC(Cl)Cl [trichloromethane] + COc1ccc(C2(C)OC(CSc3nc4ccccc4c(=O)n3-c3ccccc3C)=NN2C(C)=O)cc1 | 0.6628 ± 0.13 mPa·s | 960 ± 4 m/s | 1475.3 ± 20 kg/m3 | 0.6279 ± 0.13 mPa·s | 950.8 ± 4 m/s | 1470.8 ± 20 kg/m3 | 0.5781 ± 0.12 mPa·s | 932.4 ± 3.9 m/s | 1465.8 ± 20 kg/m3 |

From the NIST ThermoML archive (doi:10.1016/j.jct.2012.09.013)
